Results published in patent US20260374739A1, “SMALL MOLECULAR WEIGHT CHEMICAL COMPOUND TO ANTAGONIZE EPH-EPHRIN TETRAMERIZATION AND INHIBIT BIDIRECTIONAL SIGNALING” (THE BOARD OF REGENTS OF THE UNIVERSITY OF TEXAS SYSTEM, priority 2022, published 2026).
“And” between values parts separate entries of the source, which are not always exact repeats. Equal values may be shown once.

How the values were obtained:
EphrinB2-EphB2 [1] = molecular target: T1, EphrinB2-EphB2 (Homo sapiens, UniProt P29323); assay: Octet tetramerization inhibition, immobilized human EphrinB2 binding to 50 nM soluble human EphB2; details: EphrinB2-EphB2
T1 construct: soluble human EphB1-His, EphB2-His, and EphB4-His ectodomains; commercially available human EphrinB1-Fc (EB1), EphrinB2-Fc (EB2), and EphrinB3-Fc (EB3) ectodomain proteins; purchased
T1 sequence (P29323 19-543 limits assumed): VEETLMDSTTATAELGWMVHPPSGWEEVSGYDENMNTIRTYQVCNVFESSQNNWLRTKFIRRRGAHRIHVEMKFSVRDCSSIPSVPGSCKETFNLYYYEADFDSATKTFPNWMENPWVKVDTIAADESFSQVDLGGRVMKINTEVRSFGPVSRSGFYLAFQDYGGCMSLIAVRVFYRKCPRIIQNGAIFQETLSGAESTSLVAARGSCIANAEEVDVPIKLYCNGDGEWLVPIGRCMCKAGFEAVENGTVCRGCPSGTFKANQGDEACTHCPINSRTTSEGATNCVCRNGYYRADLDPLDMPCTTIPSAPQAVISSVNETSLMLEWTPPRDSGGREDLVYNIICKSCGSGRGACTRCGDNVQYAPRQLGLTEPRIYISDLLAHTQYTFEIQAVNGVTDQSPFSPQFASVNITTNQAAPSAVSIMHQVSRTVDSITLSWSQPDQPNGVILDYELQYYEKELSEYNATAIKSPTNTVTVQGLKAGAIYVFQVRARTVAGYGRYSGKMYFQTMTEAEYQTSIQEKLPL

EphrinB2-EphB1 = molecular target: T2, EphrinB2-EphB1 (Homo sapiens, UniProt P54762); assay: Octet 80 sec association/500 sec dissociation, immobilized human EphrinB2-Fc binding to soluble human EphB1-His; details: immobilized human EphrinB2, 25 nM soluble human EphB1; for EphB1 Inhibition Percent, Inhibition of Association ONLY: at 3.2 μM and 80 seconds; for EphB1 Inhibition Percent, Inhibition of Association-Dissociation: at 3.2 μM and 580 seconds
T2 construct: soluble human EphB1-His, EphB2-His, and EphB4-His ectodomains; commercially available human EphrinB1-Fc (EB1), EphrinB2-Fc (EB2), and EphrinB3-Fc (EB3) ectodomain proteins; purchased
T2 sequence (P54762 18-540 limits assumed): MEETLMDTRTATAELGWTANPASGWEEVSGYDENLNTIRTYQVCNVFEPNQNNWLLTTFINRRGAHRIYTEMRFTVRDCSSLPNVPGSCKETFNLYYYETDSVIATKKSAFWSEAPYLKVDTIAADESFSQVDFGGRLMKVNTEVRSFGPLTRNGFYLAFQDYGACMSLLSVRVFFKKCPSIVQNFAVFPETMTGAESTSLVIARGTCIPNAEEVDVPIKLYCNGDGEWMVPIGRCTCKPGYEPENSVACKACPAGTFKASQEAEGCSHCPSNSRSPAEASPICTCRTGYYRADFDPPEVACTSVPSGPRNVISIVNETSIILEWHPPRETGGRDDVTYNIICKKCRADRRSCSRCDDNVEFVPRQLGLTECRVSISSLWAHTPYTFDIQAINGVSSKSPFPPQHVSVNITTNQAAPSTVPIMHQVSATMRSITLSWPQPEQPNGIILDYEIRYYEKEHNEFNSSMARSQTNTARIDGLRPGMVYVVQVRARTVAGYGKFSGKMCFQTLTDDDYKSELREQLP
Summary of the method: (§1)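 EphrinB2-Fc captured on AHC biosensors, then soluble His-tagged EphB ectodomain (25 nM for % inhibition runs) associated 80 s and dissociated 500 s in PBS, 0.05% Tween-20, 1% DMSO ± compound. Compounds tested at 0.1–3.2 μM with a 10 μM max standard; IC50 from AUC of full traces or at 75 s and 135 s.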

EphrinB2-EphB2 [2] = molecular target: T1, EphrinB2-EphB2; assay: Octet 80 sec association/500 sec dissociation, immobilized human EphrinB2-Fc binding to soluble human EphB2-His; details: immobilized human EphrinB2, 25 nM soluble human EphB2; for EphB2 Inhibition Percent, Inhibition of Association ONLY: at 3.2 μM and 80 seconds; for EphB2 Inhibition Percent, Inhibition of Association-Dissociation: at 3.2 μM and 580 seconds
Summary of the method: as §1

EphrinB2-EphB4 = molecular target: T3, EphrinB2-EphB4 (Homo sapiens, UniProt P54760); assay: Octet 80 sec association/500 sec dissociation, immobilized human EphrinB2-Fc binding to soluble human EphB4-His; details: immobilized human EphrinB2, 25 nM soluble human EphB4; for EphB4 Inhibition Percent, Inhibition of Association ONLY: at 3.2 μM and 80 seconds; for EphB4 Inhibition Percent, Inhibition of Association-Dissociation: at 3.2 μM and 580 seconds
T3 construct: soluble human EphB1-His, EphB2-His, and EphB4-His ectodomains; commercially available human EphrinB1-Fc (EB1), EphrinB2-Fc (EB2), and EphrinB3-Fc (EB3) ectodomain proteins; purchased
T3 sequence (P54760 16-539 limits assumed): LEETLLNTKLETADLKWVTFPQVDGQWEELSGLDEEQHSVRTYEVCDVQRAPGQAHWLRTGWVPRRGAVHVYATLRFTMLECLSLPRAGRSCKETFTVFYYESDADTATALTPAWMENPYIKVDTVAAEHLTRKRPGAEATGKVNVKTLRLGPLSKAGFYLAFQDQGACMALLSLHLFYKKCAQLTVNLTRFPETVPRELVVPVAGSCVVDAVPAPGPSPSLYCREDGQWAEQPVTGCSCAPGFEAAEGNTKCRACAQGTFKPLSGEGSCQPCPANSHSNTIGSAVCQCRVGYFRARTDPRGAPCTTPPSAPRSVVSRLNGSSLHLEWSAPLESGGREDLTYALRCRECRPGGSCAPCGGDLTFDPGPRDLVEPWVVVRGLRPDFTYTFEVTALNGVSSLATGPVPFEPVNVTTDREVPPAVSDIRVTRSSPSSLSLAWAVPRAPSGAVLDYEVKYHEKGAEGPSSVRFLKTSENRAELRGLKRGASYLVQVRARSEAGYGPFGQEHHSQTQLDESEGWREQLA
Summary of the method: as §1

EphB1-EphrinB2 (EB2) = molecular target: T4, EphB1-EphrinB2 (EB2) (Rattus norvegicus, UniProt P09759); assay: Alpha assay EphB1-EphrinB2 (EB2) interaction; assay type: binding, mouse EB2
T4 construct: rat EphB1-Fc residues 18-538; mouse EB2-His residues 18-232; purchased R&D Systems (EphB1-Fc); Sino Biologicals (EB2-His)
T4 sequence (P09759 18-538): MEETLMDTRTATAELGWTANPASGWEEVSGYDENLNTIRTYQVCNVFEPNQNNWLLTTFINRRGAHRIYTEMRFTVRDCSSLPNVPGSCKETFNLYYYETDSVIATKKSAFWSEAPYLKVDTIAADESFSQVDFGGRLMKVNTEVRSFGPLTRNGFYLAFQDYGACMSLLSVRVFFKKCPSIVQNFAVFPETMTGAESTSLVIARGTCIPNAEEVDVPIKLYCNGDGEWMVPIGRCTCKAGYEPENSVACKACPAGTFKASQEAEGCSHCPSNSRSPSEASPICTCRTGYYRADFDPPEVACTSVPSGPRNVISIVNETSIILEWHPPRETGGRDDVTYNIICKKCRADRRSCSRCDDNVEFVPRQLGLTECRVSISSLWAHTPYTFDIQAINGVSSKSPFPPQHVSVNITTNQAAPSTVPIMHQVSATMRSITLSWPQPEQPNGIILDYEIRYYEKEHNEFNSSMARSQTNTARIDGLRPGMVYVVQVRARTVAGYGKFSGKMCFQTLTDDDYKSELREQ
Excerpt: A chemiluminescent AlphaScreen™ bead-based proximity assay suitable for HTS was developed to measure the receptor-ligand interaction formed between EphB1 and EphrinB2 (EB2) ectodomains (FIG. 3). Here, when singlet oxygen molecules generated by high energy irradiation of donor beads travel over a constrained distance to excite acceptor beads, a chemiluminescent signal is generated and detected. If an analyte interferes with the EphB1-EB2 protein-protein interaction, close proximity of the donor and acceptor beads will be disrupted resulting in diminished or lost energy transfer and reduced acceptor bead emission.
Test was conducted in the Alpha assay, to see if purified soluble Reelin (previously shown to bind EphB1 ectodomain) can interfere with EphB1-EB2 binding.
The EphB1-EB2 screen was conducted using 0.8 nM of each protein, 50 ng beads per well, and assessed at 5 μM a library of −240,000 small, drug-like chemicals. […] They were also tested in a counter screen designed to identify non-specific compounds. Here, a single-protein Alpha assay was set up using a dual-tagged EphB2-His-Fc ectodomain protein that can bind both donor and acceptor beads to bring them into proximity. If a selected compound simply absorbs the chemiluminescent signal or interferes with bead function/binding or protein folding, it was hypothesized that it would also reduce signals in the single protein assay, and would consider it a false positive.

[3] = Absolute Association IC50 (300 sec), Table A
[4] = Absolute Dissociation IC50 (450 sec), Table A
[5] = Relative AUC/IC50, Table A, compound 7: association only
[6] = Relative Association IC50 (300 sec), Table A

| SMILES | IC50 (EphrinB2-EphB2 [1]; [3]) | IC50 (EphrinB2-EphB2 [1]; [4]) | IC50 (EphrinB2-EphB2 [1]; [5]) | IC50 (EphrinB2-EphB2 [1]; [6]) | EphB1 Inhibition Percent, Inhibition of Association ONLY (EphrinB2-EphB1) | EphB1 Inhibition Percent, Inhibition of Association-Dissociation (EphrinB2-EphB1) | EphB2 Inhibition Percent, Inhibition of Association ONLY (EphrinB2-EphB2 [2]) | EphB2 Inhibition Percent, Inhibition of Association-Dissociation (EphrinB2-EphB2 [2]) | EphB4 Inhibition Percent, Inhibition of Association ONLY (EphrinB2-EphB4) | EphB4 Inhibition Percent, Inhibition of Association-Dissociation (EphrinB2-EphB4) | IC50 (EphrinB2-EphB2 [1]; Absolute AUC/IC50, Table A) | IC50 (EphrinB2-EphB2 [1]; Relative Dissociation IC50 (450 sec), Table A) | antagonism of EphB1-EB2 (EphB1-EphrinB2 (EB2)) |
| --- | --- | --- | --- | --- | --- | --- | --- | --- | --- | --- | --- | --- | --- |
| Oc1ccc(CN2CCN(c3ccc(Br)cn3)CC2)c2cccnc12 [Compound 34, 5-((4-(5-bromopyridin-2-yl)piperazin-1-ium-1-yl)methyl)-8-hydroxyquinolin-1-ium chloride] | 2820 nM | 2630 nM | 1700 nM | 2090 nM | 46.4% | 58.6% | 69.4% | 81.6% | 20.9% | 36.9% | – | – | – |
| Oc1c(Br)cc(CN2CCN(Cc3ccc(Br)cc3)CC2)c2cccnc12 [Compound 45, 7-bromo-5-((4-(4-bromobenzyl)piperazin-1-ium-1-yl)methyl)-8-hydroxyquinolin-1-ium chloride] | 790 nM | 720 nM | – | 560 nM | 37.3% | 49.9% | 62.1% | 77.1% | 4.9% | 28.3% | 760 nM | 590 nM | – |
| CC1CCN(Cc2cc(Br)c(O)c3ncccc23)CC1 [Compound 66, 7-bromo-5-((4-methylpiperidin-1-yl)methyl)quinolin-8-ol, reference compound] | – | – | – | – | – | – | – | – | – | – | – | – | did not pass through the Alpha confirmation and counter screens |
| Oc1ccc(CN2CCN(c3ccc(Br)cc3)CC2)c2cccnc12 [Compound 27, 5-((4-(4-bromophenyl)piperazin-1-ium-1-yl)methyl)-8-hydroxyquinolin-1-ium chloride] | > 1600 nM | > 1600 nM | 420 nM | – | 24.2% and 33.8% | 57.1% and 43.8% | 16.8% and 29.2% | 60.9% and 43.7% | 11.4/11.4% | 19.5% and 12.6% | > 1600 nM | – | – |
